Counter-ions that a name gives are not always drawn.
Test system: HCT116 cells
Assay: Inhibitory effect against cancer cell proliferation (MTT)
Type: cell-based, human
Conditions: Homo sapiens, HCT-116; HCT116, MTT, 48 hours; read-out: IC50 (uM) @ HCT116
Procedure: The formazane crystals thus formed were dissolved using dimethyl sulfoxide (DMSO) and absorbance of the solution was measured at 560 nm. After culturing for 48 hours, […] synthesized in Examples was indicated as cell viability (%) according to each treated concentration.

Row | SMILES | IC50 [µM]
1 | N=C(N)NC(=N)Nc1ccc(Br)cc1 [Example 116, N1-(4-bromo)phenyl Biguanide Hydrochloride] | 101
2 | Cl.N=C(N)NC(=N)NCc1ccc(F)cc1 [Example 132, N1-(4-fluoro)benzyl Biguanide Hydrochloride] | > 100
3 | Cl.N=C(NCCc1ccc(Cl)cc1)NC(=N)N1CCCCC1 [Example 13, N1-piperidin-N5-4-chloro)phenethyl Biguanide Hydrochloride] | > 100
4 | Cl.N=C(NCCc1ccccc1Cl)NC(=N)N1CCCCC1 [Example 14, N1-piperidin-N5-2-chloro)phenethyl Biguanide Hydrochloride] | > 100
5 | Cl.N=C(N)NC(=N)N1CCN(c2ccccn2)CC1 [Example 127, N1-4-(pyridin-2-yl)piperazine Biguanide Hydrochloride] | > 100
6 | Cl.N=C(N)NC(=N)Nc1ccc(N2CCOCC2)cc1 [Example 122, N1-(4-morpholin-4-yl)phenyl Biguanide Hydrochloride] | > 100
7 | Cl.N=C(N)NC(=N)Nc1ccccc1 [Example 113, N1-phenyl Biguanide Hydrochloride] | 72.7

Test system: AMPKa [pT172]
Assay: AMPKa activation [pT172] in MCF7 cell
Type: cell-based
Conditions: 5 uM

Row | SMILES | AMPKa activation [pT172] (Unit/ml) @ MCF7 cell [Unit/ml]
8 | Cl.N=C(N)NC(=N)NCc1ccc(F)cc1 [Example 132, N1-(4-fluoro)benzyl Biguanide Hydrochloride] | 6.1
9 | Cl.N=C(N)NC(=N)Nc1ccccc1 [Example 113, N1-phenyl Biguanide Hydrochloride] | 9.9

Same assay, conditions: 10 uM

Row | SMILES | AMPKa activation [pT172] (Unit/ml) @ MCF7 cell [Unit/ml]
10 | Cl.N=C(N)NC(=N)Nc1ccccc1 [Example 113, N1-phenyl Biguanide Hydrochloride] | 10.1

Same assay, conditions: 50 uM

Row | SMILES | AMPKa activation [pT172] (Unit/ml) @ MCF7 cell [Unit/ml]
11 | N=C(N)NC(=N)Nc1ccc(Br)cc1 [Example 116, N1-(4-bromo)phenyl Biguanide Hydrochloride] | 25.9
12 | Cl.N=C(N)NC(=N)NCc1ccc(F)cc1 [Example 132, N1-(4-fluoro)benzyl Biguanide Hydrochloride] | 8.1
13 | CC(C)NC(=N)NC(=N)NCc1cccnc1.Cl [Example 6, N1-isopropyl-N5-1-(pyridin-3-yl)methyl Biguanide Hydrochloride] | 4.8
14 | Cl.N=C(N)NC(=N)N1CCN(c2ccccn2)CC1 [Example 127, N1-4-(pyridin-2-yl)piperazine Biguanide Hydrochloride] | 5.8
15 | Cl.N=C(N)NC(=N)Nc1ccc(N2CCOCC2)cc1 [Example 122, N1-(4-morpholin-4-yl)phenyl Biguanide Hydrochloride] | 5.9
16 | Cl.N=C(N)NC(=N)Nc1ccccc1 [Example 113, N1-phenyl Biguanide Hydrochloride] | 28.6

Test system: A549 cell line
Assay: Oxygen consumption rate (OCR) and extracellular acidification rate (ECAR) in A549 cells
Type: cell-based
Conditions: Homo sapiens, A549, 3 hrs, control group set at 0%, phenformin set at 100%, read-out: ECAR (A549, 3 hrs)
Procedure: A549 cell line (purchased from ATCC-American Type Culture Collection (ATCC)), a lung cancer cell line, is treated with the compounds and OCR and ECAR of the cells are measured and thereby those compounds which show an improved effect compared to phenformin are selected.
The cells are plated on an XF96 cell culture plate containing RPMI1640 medium at a concentration of 5×10^3 cells and cultured in 37° C., 5% CO2 conditions to allow them to be attached thereto.
After 24 hours, the cells are treated with the drug at a concentration of 10 μM for 2 hours, the existing medium is washed with a medium for XF analysis (15 mM D-glucose, 15 mM sodium pyruvate, 4 mM L-glutamine, pH 7.4) to remove the medium using a Prep station and treated again with the drugs, and cultured in 37° C., non-CO2 conditions in the Prep station for 1 hour. While culturing in the Prep station, a sensor cartridge is calibrated for 1 hour and added into a plate containing cells, and OCR and ECAR analyses are performed.
The measured values of OCR and ECAR of the compounds are calculated with reference to the measured values of OCR and ECAR of the control group which is set at 0% and the values of OCR and ECAR of phenformin, which was used as the reference drug, set at 100%, and those compounds which show an improved effect compared to those of phenformin are selected.
From the primarily-selected compounds, those compounds which show an improved effect are treated at various concentrations (0 μM, 0.5 μM, 1 μM, 5 μM, 10 μM, and 20 μM) and their reactivity according to concentration was obtained.

Row | SMILES | Emax at 10 µM [%]
17 | CC1CC(=O)N=C(NC(=N)N)N1.Cl (centres unmarked) [Example 164, Hydrochloride] | 9
18 | N=C(N)NC(=N)Nc1ccc(Br)cc1 [Example 116, N1-(4-bromo)phenyl Biguanide Hydrochloride] | -24
19 | N=C(N)NC(=N)NCc1ccco1 [Example 144, N1-(furan-2-yl)methyl Biguanide Hydrochloride] | 7
20 | COc1ccc(CCCNC(=N)NC(=N)N)cc1 [Example 148, N1-(4-methoxy)phenylpropyl Biguanide Hydrochloride] | 160
21 | Cl.N=C(N)NC(=N)NCc1ccc(F)cc1 [Example 132, N1-(4-fluoro)benzyl Biguanide Hydrochloride] | 44.7
22 | N=C(N)NC(=N)NCc1cccc(I)c1 [Example 150, N1-(3-iodo)benzyl Biguanide Hydrochloride] | 125
23 | N=C(NC(=N)N1CCCC1)Nc1c(F)cccc1F [Example 80, N1-pyrrolidin-N5-(2,6-difluoro)phenyl Biguanide Hydrochloride] | 1
24 | CN(C(=N)NC(=N)N1CCCC1)c1ccc(OC(F)(F)F)cc1 [Example 82, N1-pyrrolidin-N5-methyl-N5-(4-trifluoromethoxy)phenyl Biguanide Hydrochloride] | 6.9
25 | C/N=C(/NC(=N)N1CCCC1)N(C)c1ccc(OC(F)(F)F)cc1 [Example 106, N1-methyl-N1-(4-trifluoromethoxy)phenyl-N2-methyl-N5-pyrrolidine Biguanide Hydrochloride] | -7.5
26 | CN(C)C(=N)NC(=N)N(C)c1ccc(OC(F)(F)F)cc1 [Example 85, N1,N1-dimethyl-N5-methyl-N5-(4-trifluoromethoxy)phenyl Biguanide Hydrochloride] | 31
27 | Cl.N=C(NCCc1ccc(Cl)cc1)NC(=N)N1CCCCC1 [Example 13, N1-piperidin-N5-4-chloro)phenethyl Biguanide Hydrochloride] | 61
28 | Cl.N=C(NCCc1ccccc1Cl)NC(=N)N1CCCCC1 [Example 14, N1-piperidin-N5-2-chloro)phenethyl Biguanide Hydrochloride] | 63
29 | N=C(N)N/C(=N/CCc1ccccc1)NCCc1cccs1 [Example 103, N1 (2-thiophen-2-yl)ethyl-N2-phenethyl Biguanide Hydrochloride] | -43
30 | N=C(N)NC(=N)NCc1ccc(O)cc1F [Example 146, N1-(2-fluoro-4-hydroxy)benzyl Biguanide Hydrochloride] | 28
31 | CC(C)NC(=N)NC(=N)NCc1cccnc1.Cl [Example 6, N1-isopropyl-N5-1-(pyridin-3-yl)methyl Biguanide Hydrochloride] | 9.3
32 | N=C(N)NC(=N)NCc1ccccc1I [Example 149, N1-(2-iodo)benzyl Biguanide Hydrochloride] | 36
33 | C/N=C(/NC(=N)N1CCCC1)Nc1ccc(OC(F)(F)F)cc1 [Example 105, N1-(4-trifluoromethoxy)phenyl-N2-methyl-N5-pyrrolidine Biguanide Hydrochloride] | -25.5
34 | N=C(N)N/C(=N/CCc1ccc2c(c1)OCO2)NCCc1cccs1 [Example 104, N1-2-thiophen-2-)ethyl-N2-2-benzo[d][1,3]dioxol-5-yl)ethyl Biguanide Hydrochloride] | -8.3
35 | Cl.N=C(N)NC(=N)N1CCN(c2ccccn2)CC1 [Example 127, N1-4-(pyridin-2-yl)piperazine Biguanide Hydrochloride] | 7
36 | Cl.N=C(N)NC(=N)Nc1ccc(N2CCOCC2)cc1 [Example 122, N1-(4-morpholin-4-yl)phenyl Biguanide Hydrochloride] | 15.5
37 | N=C(N)N/C(=N/C1CCCC1)NCc1ccc2c(c1)OCO2 [Example 107, N1-(benzo[d][1,3]dioxol-5-yl)methyl-N2-cyclopentyl Biguanide Hydrochloride] | -8.9
38 | N=C(N)NC(=N)NCCCc1ccc(F)cc1 [Example 147, N1-(4-fluoro)phenylpropyl Biguanide Hydrochloride] | 126
39 | Cl.N=C(N)NC(=N)Nc1ccccc1 [Example 113, N1-phenyl Biguanide Hydrochloride] | -24

Same assay, conditions: Homo sapiens, A549, 3 hrs, control group set at 0%, phenformin set at 100%, read-out: OCR (A549, 3 hrs)

Row | SMILES | Emax at 10 µM [%]
40 | CC1CC(=O)N=C(NC(=N)N)N1.Cl (centres unmarked) [Example 164, Hydrochloride] | -1
41 | N=C(N)NC(=N)Nc1ccc(Br)cc1 [Example 116, N1-(4-bromo)phenyl Biguanide Hydrochloride] | 0
42 | N=C(N)NC(=N)NCc1ccco1 [Example 144, N1-(furan-2-yl)methyl Biguanide Hydrochloride] | 47
43 | COc1ccc(CCCNC(=N)NC(=N)N)cc1 [Example 148, N1-(4-methoxy)phenylpropyl Biguanide Hydrochloride] | 1
44 | Cl.N=C(N)NC(=N)NCc1ccc(F)cc1 [Example 132, N1-(4-fluoro)benzyl Biguanide Hydrochloride] | 39.3
45 | N=C(N)NC(=N)NCc1cccc(I)c1 [Example 150, N1-(3-iodo)benzyl Biguanide Hydrochloride] | 105
46 | N=C(NC(=N)N1CCCC1)Nc1c(F)cccc1F [Example 80, N1-pyrrolidin-N5-(2,6-difluoro)phenyl Biguanide Hydrochloride] | 3
47 | CN(C(=N)NC(=N)N1CCCC1)c1ccc(OC(F)(F)F)cc1 [Example 82, N1-pyrrolidin-N5-methyl-N5-(4-trifluoromethoxy)phenyl Biguanide Hydrochloride] | 7.7
48 | C/N=C(/NC(=N)N1CCCC1)N(C)c1ccc(OC(F)(F)F)cc1 [Example 106, N1-methyl-N1-(4-trifluoromethoxy)phenyl-N2-methyl-N5-pyrrolidine Biguanide Hydrochloride] | -6.6
49 | CN(C)C(=N)NC(=N)N(C)c1ccc(OC(F)(F)F)cc1 [Example 85, N1,N1-dimethyl-N5-methyl-N5-(4-trifluoromethoxy)phenyl Biguanide Hydrochloride] | -6
50 | Cl.N=C(NCCc1ccc(Cl)cc1)NC(=N)N1CCCCC1 [Example 13, N1-piperidin-N5-4-chloro)phenethyl Biguanide Hydrochloride] | -20
51 | Cl.N=C(NCCc1ccccc1Cl)NC(=N)N1CCCCC1 [Example 14, N1-piperidin-N5-2-chloro)phenethyl Biguanide Hydrochloride] | -7
52 | N=C(N)N/C(=N/CCc1ccccc1)NCCc1cccs1 [Example 103, N1 (2-thiophen-2-yl)ethyl-N2-phenethyl Biguanide Hydrochloride] | 36
53 | N=C(N)NC(=N)NCc1ccc(O)cc1F [Example 146, N1-(2-fluoro-4-hydroxy)benzyl Biguanide Hydrochloride] | 109
54 | CC(C)NC(=N)NC(=N)NCc1cccnc1.Cl [Example 6, N1-isopropyl-N5-1-(pyridin-3-yl)methyl Biguanide Hydrochloride] | 16.7
55 | N=C(N)NC(=N)NCc1ccccc1I [Example 149, N1-(2-iodo)benzyl Biguanide Hydrochloride] | 20
56 | C/N=C(/NC(=N)N1CCCC1)Nc1ccc(OC(F)(F)F)cc1 [Example 105, N1-(4-trifluoromethoxy)phenyl-N2-methyl-N5-pyrrolidine Biguanide Hydrochloride] | 25.1
57 | N=C(N)N/C(=N/CCc1ccc2c(c1)OCO2)NCCc1cccs1 [Example 104, N1-2-thiophen-2-)ethyl-N2-2-benzo[d][1,3]dioxol-5-yl)ethyl Biguanide Hydrochloride] | 31.3
58 | Cl.N=C(N)NC(=N)N1CCN(c2ccccn2)CC1 [Example 127, N1-4-(pyridin-2-yl)piperazine Biguanide Hydrochloride] | 10.2
59 | Cl.N=C(N)NC(=N)Nc1ccc(N2CCOCC2)cc1 [Example 122, N1-(4-morpholin-4-yl)phenyl Biguanide Hydrochloride] | 13.3
60 | N=C(N)N/C(=N/C1CCCC1)NCc1ccc2c(c1)OCO2 [Example 107, N1-(benzo[d][1,3]dioxol-5-yl)methyl-N2-cyclopentyl Biguanide Hydrochloride] | -4.4
61 | N=C(N)NC(=N)NCCCc1ccc(F)cc1 [Example 147, N1-(4-fluoro)phenylpropyl Biguanide Hydrochloride] | 74
62 | Cl.N=C(N)NC(=N)Nc1ccccc1 [Example 113, N1-phenyl Biguanide Hydrochloride] | -3
